# Experimental data: patent publication US12115165B2, “Use of reboxetine to treat narcolepsy” (AXSOME THERAPEUTICS, INC., priority 2018, dated 2024)
# “And” between values parts separate entries of the source, which are not always exact repeats. Equal values may be shown once.
# How the values were obtained:
# [1] = human patients; without controlled release coating; cited from earlier work
# [2] = system: patient diagnosed as suffering from narcolepsy with cataplexy; test: Single-patient examples: reboxetine 5 mg at 8 am and 5 mg at 1 pm for three weeks in narcolepsy with cataplexy; assay type: in vivo, human
# Method: A person is diagnosed as suffering from narcolepsy with cataplexy. They are given reboxetine and instructed to take 5 mg of reboxetine at 8 am and 5 mg of reboxetine at 1 pm for three weeks. The patient is evaluated prior to treatment, and weekly to determine the MWT score, the number of cataplexy attacks, the PGI-C score, the HAM-D score, the ESS score, the NSAQ score, and the ability to concentrate on the NSAQ. After one week of treatment, the number of cataplexy attacks have decreased by 10-30%.
# A person is diagnosed as suffering from narcolepsy with cataplexy. They are given reboxetine and instructed to take 5 mg of reboxetine at 8 am and 5 mg of reboxetine at 1 pm for three weeks. The patient is evaluated prior to treatment, and weekly to determine the MWT score, the number of cataplexy attacks, the PGI-C score, the HAM-D score, the ESS score, the NSAQ score, and the ability to concentrate on the NSAQ. After one week of treatment, the number of cataplexy attacks have decreased by 30-60%.
# A person is diagnosed as suffering from narcolepsy with cataplexy. They are given reboxetine and instructed to take 5 mg of reboxetine at 8 am and 5 mg of reboxetine at 1 pm for three weeks. The patient is evaluated prior to treatment, and weekly to determine the MWT score, the number of cataplexy attacks, the PGI-C score, the HAM-D score, the ESS score, the NSAQ score, and the ability to concentrate on the NSAQ. After one week of treatment, the number of cataplexy attacks have decreased by 60-100%.
# A person is diagnosed as suffering from narcolepsy with cataplexy. They are given reboxetine and instructed to take 5 mg of reboxetine at 8 am and 5 mg of reboxetine at 1 pm for three weeks. The patient is evaluated prior to treatment, and weekly to determine the MWT score, the number of cataplexy attacks, the PGI-C score, the HAM-D score, the ESS score, the NSAQ score, and the ability to concentrate on the NSAQ. After one week of treatment, the ESS score has decreased by 10-30%.
# A person is diagnosed as suffering from narcolepsy with cataplexy. They are given reboxetine and instructed to take 5 mg of reboxetine at 8 am and 5 mg of reboxetine at 1 pm for three weeks. The patient is evaluated prior to treatment, and weekly to determine the MWT score, the number of cataplexy attacks, the PGI-C score, the HAM-D score, the ESS score, the NSAQ score, and the ability to concentrate on the NSAQ. After one week of treatment, the ESS score has decreased by 30-60%.
# A person is diagnosed as suffering from narcolepsy with cataplexy. They are given reboxetine and instructed to take 5 mg of reboxetine at 8 am and 5 mg of reboxetine at 1 pm for three weeks. The patient is evaluated prior to treatment, and weekly to determine the MWT score, the number of cataplexy attacks, the PGI-C score, the HAM-D score, the ESS score, the NSAQ score, and the ability to concentrate on the NSAQ. After one week of treatment, the ESS score has decreased by 60-100%.
# A person is diagnosed as suffering from narcolepsy with cataplexy. They are given reboxetine and instructed to take 5 mg of reboxetine at 8 am and 5 mg of reboxetine at 1 pm for three weeks. The patient is evaluated prior to treatment, and weekly to determine the MWT score, the number of cataplexy attacks, the PGI-C score, the HAM-D score, the ESS score, the NSAQ score, and the ability to concentrate on the NSAQ. After one week of treatment, the MWT score has decreased by 10-30%.
# A person is diagnosed as suffering from narcolepsy with cataplexy. They are given reboxetine and instructed to take 5 mg of reboxetine at 8 am and 5 mg of reboxetine at 1 pm for three weeks. The patient is evaluated prior to treatment, and weekly to determine the MWT score, the number of cataplexy attacks, the PGI-C score, the HAM-D score, the ESS score, the NSAQ score, and the ability to concentrate on the NSAQ. After one week of treatment, the MWT score has decreased by 30-60%. […]
# [3] = system: patients with a diagnosis of narcolepsy with cataplexy; test: Phase 2, double-blind, randomized, placebo-controlled, crossover, multicenter trial of reboxetine in patients with narcolepsy; assay type: in vivo, human
# Method: A Phase 2, double-blind, randomized, placebo-controlled, crossover, multicenter trial of reboxetine was carried out in patients with narcolepsy. A total of 21 patients with a diagnosis of narcolepsy with cataplexy were treated for 2 weeks with reboxetine or with placebo, followed by a crossover to the other treatment after a 1-week down-titration and washout period. Reboxetine was administered orally twice daily, with a total daily dose of 8 mg for Week 1 which was escalated to 10 mg for Week 2. Patients were randomized in a 1:1 ratio either to treatment with reboxetine followed by placebo (sequence 1), or to treatment with placebo followed by reboxetine (sequence 2). The average number of cataplexy attacks at baseline was 30. Key assessments were made daily using an electronic diary. The prespecified primary endpoint was the change in the weekly number of cataplexy attacks, averaged over the 2-week treatment period (overall treatment effect). Secondary endpoints included changes in the number of inadvertent naps, cognition, and Epworth Sleepiness Scale. Cognition was assessed using the Ability to Concentrate item of the Narcolepsy Symptom Assessment Questionnaire, a patient reported outcome measure. This item is rated on 5-point scale (1=very good to 5=very poor). All analyses were conducted on an intent-to-treat basis.
smiles,measurement,setting,value
CCOc1ccccc1OC(c1ccccc1)C1CNCCO1 (centres unmarked) [reboxetine],time to reach a maximum plasma concentration,[1],2 to 4 h
same,decrease in ESS score,[2]; after one week of treatment,10-30% and 30-60% and 60-100%
same,decrease in MWT score,[2]; after one week of treatment,10-30% and 30-60% and 60-100%
same,decrease in number of cataplexy attacks,[2]; after one week of treatment,10-30% and 30-60% and 60-100%
same,decrease in ESS score,[2]; after three weeks of treatment,10-30% and 30-60% and 60-100%
same,decrease in HAM-D score,[2]; after three weeks of treatment,10-30% and 30-60% and 60-100%
same,decrease in MWT score,[2]; after three weeks of treatment,10-30% and 30-60% and 60-100%
same,decrease in number of cataplexy attacks,[2]; after three weeks of treatment,10-30% and 30-60% and 60-100%
same,patients with an ability to concentrate that was good to very good (Ability to Concentrate item of the NSAQ),"[3]; Week 1, p=0.007 vs placebo",38.1%
same,mean reduction from baseline in cataplexy attacks,[3]; Week 2,48.7%
same,mean reduction of cataplexy attacks per week,"[3]; Week 2, baseline average 30 attacks, p=0.002 vs placebo",14.6 cataplexy attacks per week
same,mean reduction from baseline in the average weekly number of inadvertent naps,"[3]; Week 2, p<0.001 vs placebo, FIG. 5",31.8%
same,proportion of patients achieving a 50% or greater reduction in the weekly number of cataplexy attacks,"[3]; Week 2, p=0.003 vs placebo, FIG. 2",76.2%
same,proportion of patients achieving a 75% or greater reduction in the weekly number of cataplexy attacks,"[3]; Week 2, p=0.018 vs placebo, FIG. 3",42.9%
same,mean reduction from baseline in cataplexy attacks,[3]; after 1-week treatment,43.3%
same,mean reduction of cataplexy attacks,"[3]; after 1-week treatment, p<0.001 vs placebo",13.0 cataplexy attacks
same,patients with reductions in hypnagogic hallucinations,"[3]; as compared to placebo, FIG. 9",greater proportion of patients with reductions
same,patients with reductions in sleep paralysis episodes,"[3]; as compared to placebo, FIG. 9",greater proportion of patients with reductions
same,patients with an ability to concentrate that was good to very good (Ability to Concentrate item of the NSAQ),"[3]; end of the 2-week treatment period, 0% at baseline",42.9%
same,discontinuations due to adverse events,"[3]; human, in vivo",no discontinuations due to adverse events
same,most commonly reported adverse events,"[3]; human, in vivo","anxiety, constipation, and insomnia"
same,safety and tolerability,"[3]; human, in vivo",safe and well tolerated
same,serious adverse events,"[3]; human, in vivo",no serious adverse events
same,reduction in the Epworth Sleepiness Scale (ESS) score from baseline,"[3]; p=0.003 vs placebo, FIG. 4",6.0
same,patients reporting improved sleep quality,"[3]; p=0.007 vs placebo, FIG. 9",45.0%
same,patients with 50% or greater reduction in inadvertent naps,"[3]; p=0.036 vs placebo, FIG. 6",38.1%
same,patients reporting a reduction in the number of awakenings at night,"[3]; p=0.044 vs placebo, FIG. 9",30.0%
same,overall percentage of patients experiencing adverse events,[3]; placebo 40.0%,42.9%
same,"reduction from baseline in the mean weekly number of cataplexy attacks, averaged for the 2-week treatment period (overall treatment effect), primary endpoint","[3]; vs placebo, p<0.001, 8 mg/day Week 1, 10 mg/day Week 2, oral twice daily, FIG. 1",highly statistically significant reduction
